Assay results reported in patent US9890117B2, “Benzamide compounds and related methods of use” (Northwestern University, priority 2012, dated 2018).
Counter-ions that a name gives are not always drawn.

Assays:
[1] = biological target: T1, SIRT2 (Homo sapiens, UniProt Q8IXJ6); experiment: Fluor-de-Lys biochemical sirtuin deacetylation assay, SIRT2; conditions: 10 μM
T1 construct: recombinant active enzymes SIRT1, SIRT2, and the catalytically active fragment of SIRT3
T1 sequence (Q8IXJ6 1-389): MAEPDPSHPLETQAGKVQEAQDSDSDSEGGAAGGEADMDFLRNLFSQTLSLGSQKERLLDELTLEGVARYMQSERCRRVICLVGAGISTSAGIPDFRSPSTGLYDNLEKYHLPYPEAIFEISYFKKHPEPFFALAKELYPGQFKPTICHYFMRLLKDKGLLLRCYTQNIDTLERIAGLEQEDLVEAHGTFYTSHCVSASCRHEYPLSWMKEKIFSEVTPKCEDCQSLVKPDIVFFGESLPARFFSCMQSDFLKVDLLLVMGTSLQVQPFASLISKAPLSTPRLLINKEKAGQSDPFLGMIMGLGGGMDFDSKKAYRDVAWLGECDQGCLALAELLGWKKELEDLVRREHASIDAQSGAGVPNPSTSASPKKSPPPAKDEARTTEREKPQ

[2] = sulfone, sulfoxide, thioether derivatives of C2-8 scaffold

Row | inhibition at 10 µM [1] [%] | melting point | inhibition at 10 µM [1, 2] [%] | Compound
1 | 16 | 188 to 189 °C |  | CN(c1ccc(S(C)(=O)=O)cc1)S(=O)(=O)c1cccc(C(=O)Nc2ccc(C#N)cc2F)c1 [Compound 203Ai, N-(4-cyano-2-fluorophenyl)-3-(N-methyl-N-(4-(methylsulfonyl)phenyl)-sulfamoyl)benzamide]
2 | 59 | 148 to 150 °C |  | N#Cc1ccc(NC(=O)c2cccc(SCc3ccc(F)cc3)c2)cc1 [Compound 211g, N-(4-cyanophenyl)-3-((4-fluorobenzyl)thio)benzamide]
3 | 64 | 173 to 174 °C |  | N#Cc1ccc(NC(=O)c2cccc(OCc3ccc(F)c(F)c3)c2)cc1 [Compound 216z, N-(4-cyanophenyl)-3-((3,4-difluorobenzyl)oxy)benzamide]
4 | 27 | 152 to 153 °C |  | C[C@H](Oc1cncc(C(=O)Nc2ccc(C#N)cc2)c1)c1ccc(F)cc1 [Compound 216s, (S)—N-(4-cyanophenyl)-5-(1-(4-fluorophenyl)ethoxy)nicotinamide]
5 | 61 | 185 to 186 °C |  | CC(=O)c1ccc(N(C2CC2)S(=O)(=O)c2cccc(C(=O)Nc3ccc(C#N)cc3)c2)cc1 [Compound 203Aw, 3-(N-(4-acetylphenyl)-N-cyclopropylsulfamoyl)-N-(4-cyanophenyl)benzamide]
6 | 15 | 169 to 170 °C |  | CN(C(=O)c1cccc(S(=O)(=O)N(C)c2ccc(Cl)cc2)c1)c1ccc(C#N)cc1F [Compound 203Ac, 3-(N-(4-chlorophenyl)-N-methylsulfamoyl)-N-(4-cyano-2-fluorophenyl)-N-methylbenzamide]
7 | 28 | 172 to 174 °C |  | CN(c1ccc(Cl)cc1)S(=O)(=O)c1cc(C(=O)Nc2ccc([S+](C)[O-])cc2)ccn1 (stereo not shown) [Compound 203An, 2-(N-(4-chlorophenyl)-N-methylsulfamoyl)-N-(4-(methylsulfinyl)phenyl)-isonicotinamide]
8 | 59 | 117 to 120 °C |  | CC(=O)Nc1cccc(NC(=O)c2cccc(S(=O)(=O)N3CCCCCC3)c2)c1 [Compound 203k, N-(3-acetamidophenyl)-3-(azepan-1-ylsulfonyl)benzamide]
9 | 40 | 147 to 148 °C |  | COc1ccc(COc2cccc(C(=O)Nc3ccc(C#N)cc3)c2)cc1 [Compound 216c, N-(4-cyanophenyl)-3-((4-methoxybenzyl)oxy)benzamide]
10 | 53 | 168 to 169 °C |  | CCN(c1ccc(OC)cc1)S(=O)(=O)c1cccc(C(=O)Nc2ccc(C#N)cc2)c1 [Compound 203Ba, N-(4-cyanophenyl)-3-(N-ethyl-N-(4-methoxyphenyl)sulfamoyl)benzamide]
11 | 0 | 266 to 268 °C (dec.) |  | N#Cc1ccc(COc2cncc(C(=O)Nc3ccc(C#N)cc3)c2)cc1 [Compound 216t, 5-((4-cyanobenzyl)oxy)-N-(4-cyanophenyl)nicotinamide]
12 | 56 | 205 to 207 °C |  | N#Cc1ccc(COc2cccc(C(=O)Nc3ccc(C#N)cc3)c2)cc1 [Compound 216q, 3-((4-cyanobenzyl)oxy)-N-(4-cyanophenyl)benzamide]
13 | 69 | 167 to 169 °C |  | COc1ccc(CSc2cccc(C(=O)Nc3ccc(C#N)cc3)c2)cc1 [Compound 211c, N-(4-cyanophenyl)-3-((4-methoxybenzyl)thio)benzamide]
14 | 0 | 177 to 179 °C |  | Cc1cc(Br)ccc1NC(=O)c1cccc(S(=O)(=O)N2CCCCCC2)c1 [Compound 203b, 3-(azepan-1-ylsulfonyl)-N-(4-bromo-2-methylphenyl)benzamide]
15 | 32 | 174 to 175 °C |  | C[S+]([O-])c1ccc(COc2cccc(C(=O)Nc3ccc(C#N)cc3)c2)cc1 (stereo not shown) [Compound 216e]
16 | 59 | 168 to 169 °C |  | CCOc1ccc(N(CC)S(=O)(=O)c2cccc(C(=O)Nc3ccc(C#N)cc3)c2)cc1 [Compound 203Az, N-(4-cyanophenyl)-3-(N-(4-ethoxyphenyl)-N-ethylsulfamoyl)benzamide]
17 | 0 | 148 to 150 °C |  | CN(C(=O)c1cccc(S(=O)(=O)N(C)c2ccc([S+](C)[O-])cc2)c1)c1ccc(C#N)cc1F (stereo not shown) [Compound 203Al, N-(4-cyano-2-fluorophenyl)-N-methyl-3-(N-methyl-N-(4-(methylsulfinyl)phenyl)-sulfamoyl)benzamide]
18 | 33 | 224 to 226 °C |  | CN(c1ccc(S(C)(=O)=O)cc1)S(=O)(=O)c1cc(C(=O)Nc2ccc(C#N)cc2)ccn1 [Compound 203As, N-(4-cyanophenyl)-2-(N-methyl-N-(4-(methylsulfonyl)phenyl)sulfamoyl)-isonicotinamide]

Row | inhibition at 10 µM [1] [%] | melting point | inhibition at 10 µM [1, 2] [%] | Compound
19 | 15 | 199 to 201 °C |  | N#Cc1ccc(COc2cc(O)cc(C(=O)Nc3ccc(C#N)cc3)c2)cc1 [Compound 216w, 3-((4-cyanobenzyl)oxy)-N-(4-cyanophenyl)-5-hydroxybenzamide]
20 |  | 127 to 128 °C |  | CN(C(=O)c1cccc(S(=O)(=O)N(C)c2ccc(Br)cc2)c1)c1ccc(Cl)cc1F [Compound 203p, 3-(N-(4-bromophenyl)-N-methylsulfamoyl)-N-(4-chloro-2-fluorophenyl)-N-methylbenzamide]
21 |  | 136 to 137 °C |  | CN(C(=O)c1cccc(S(=O)(=O)N(C)c2ccc(Br)cc2)c1)c1ccc(Br)cc1F [Compound 203s, N-(4-bromo-2-fluorophenyl)-3-(N-(4-bromophenyl)-N-methylsulfamoyl)-N-methylbenzamide]
22 |  | 135 to 136 °C |  | O=C(Cc1ccc(Cl)cc1)c1cccc(S(=O)(=O)N2CCCCCC2)c1 [Compound 231a, 1-(3-(azepan-1-ylsulfonyl)phenyl)-2-(4-chlorophenyl)ethanone]
23 | 55 |  |  | N#Cc1ccc(NC(=O)c2cccc(CN(Cc3ccc(F)c(F)c3)C3CC3)c2)cc1 [Compound 225d, N-(4-cyanophenyl)-3-((cyclopropyl(3,4-difluorobenzyl)amino)methyl)benzamide hydrochloride]
24 | 3 |  |  | O=C(Nc1ccc(C(F)(F)F)cc1)c1cncc(CN(Cc2ccc(F)c(F)c2)C2CC2)c1 [Compound 225v, 5-((cyclopropyl(3,4-difluorobenzyl)amino)methyl)-N-(4-(trifluoromethyl)phenyl)-nicotinamide hydrochloride]
25 |  | 158 to 159 °C |  | CN(c1ccc(Cl)cc1)S(=O)(=O)c1cccc(C(=O)Nc2ccc(C#N)cc2F)c1 [Compound 203Ab, 3-(N-(4-chlorophenyl)-N-methylsulfamoyl)-N-(4-cyano-2-fluorophenyl)benzamide]
26 |  |  | 24 | C[S+]([O-])c1ccc(NC(=O)c2cccc([S+]([O-])Cc3ccc(Cl)cc3)c2)cc1 (stereo not shown) [Compound 187, 3-((4-chlorobenzyl)sulfinyl)-N-(4-(methylsulfinyl)phenyl)benzamide]
27 | 94 |  |  | CC(=O)c1ccc(NC(=O)c2cccc(OC(C)c3ccc(C(C)=O)cc3)c2)cc1 (stereo not shown) [Compound 216Ay, N-(4-acetylphenyl)-3-(1-(4-acetylphenyl)ethoxy)benzamide]
28 | 54 |  |  | C[C@H](Oc1cccc(C(=O)Nc2ccc(C#N)cc2)c1)c1ccc(F)cc1 [Compound 216o, (S)—N-(4-cyanophenyl)-3-(1-(4-fluorophenyl)ethoxy)benzamide]
29 | 0 |  |  | CN(c1ccc([S+](C)[O-])cc1)S(=O)(=O)c1cccc(C(=O)Nc2ccc(Cl)cc2F)c1 (stereo not shown) [Compound 203Ad, N-(4-chloro-2-fluorophenyl)-3-(N-methyl-N-(4-(methylsulfinyl)phenyl)sulfamoyl)-benzamide]
30 | 49 |  |  | N#Cc1ccc(NC(=O)c2cccc(CN(Cc3ccc(C(F)(F)F)cc3)C3CC3)c2)cc1 [Compound 225e, N-(4-cyanophenyl)-3-((cyclopropyl(4-(trifluoromethyl)benzyl)amino)methyl)-benzamide hydrochloride]
31 |  |  | 21 | COc1ccc(C[S+]([O-])c2cccc(C(=O)Nc3ccc(C#N)cc3)c2)cc1 (stereo not shown) [Compound 189, N-(4-cyanophenyl)-3-((4-methoxybenzyl)sulfinyl)benzamide]
32 | 98 |  |  | CC(=O)c1ccc([C@@H](C)Oc2cccc(C(=O)Nc3ccc(C#N)cc3)c2)cc1 [Compound 216Ak, (R)-3-(1-(4-acetylphenyl)ethoxy)-N-(4-cyanophenyl)benzamide]
33 | 92 |  |  | C[C@@H](Oc1cccc(C(=O)Nc2ccc(C#N)cc2)c1)c1ccc(C#N)cc1 [Compound 216Ag, (R)—N-(4-cyanophenyl)-3-(1-(4-cyanophenyl)ethoxy)benzamide]
34 | 51 |  |  | CN(c1ccc(O)cc1)S(=O)(=O)c1cccc(C(=O)Nc2ccc(C#N)cc2)c1 [Compound 203Ax, N-(4-cyanophenyl)-3-(N-(4-hydroxyphenyl)-N-methylsulfamoyl)benzamide]
35 | 0 |  |  | CN(C(=O)c1ccnc(S(=O)(=O)N(C)c2ccc(Cl)cc2)c1)c1ccc(S(C)(=O)=O)cc1 [Compound 203Ao, 2-(N-(4-chlorophenyl)-N-methylsulfamoyl)-N-methyl-N-(4-(methylsulfonyl)phenyl)-isonicotinamide]
36 |  | 195 to 197 °C |  | CN(c1ccc(Cl)cc1)S(=O)(=O)c1cc(C(=O)Nc2ccc(C#N)cc2)ccn1 [Compound 203Am, 2-(N-(4-chlorophenyl)-N-methylsulfamoyl)-N-(4-cyanophenyl)isonicotinamide]
